Earlier results in patent US20220233546A1, “Neurologist Formulated Nocturnal Nootropic Founded on a Novel Theory of Brain Aging” (priority 2022, published 2022).
Read-outs that look alike come from different tables or passages of the source.

Assays:
[1] = daily dose of 200 to 2400 mg/day
[2] = in vivo
[3] = test system: young persons with multiple sclerosis
[4] = test system: persons with Alzheimer's disease, Parkinson's disease, and multiple sclerosis; settings: combination therapy including Apigenin 100 mg
[5] = test system: plasma homocysteine; settings: supplementation, human
[6] = human; saffron extract 56 mg and 84 mg
[7] = test system: adults without dementia
[8] = 675 mg, at 4 weeks
[9] = test system: children with autism spectrum disorder; settings: combination therapy including Luteolin 100 mg
[10] = test system: amyotrophic lateral sclerosis (ALS)
[11] = test system: multiple sclerosis; settings: high doses; adjunctive therapy in multiple sclerosis
[12] = test system: persons with mild cognitive impairment
[13] = test system: persons with mild cognitive impairment; remark: listed apart in the source
[14] = test system: neurohypophyseal hormone release

With O=C(O)CCCCC1CCSS1 (racemic) [ALA, Alpha Lipoic Acid] as the compound, how does the safety and tolerability [1] read?
The safety and tolerability was “safe and well-tolerated”.

Which bioavailability [2] does the source give for C/C1=C2/[N-][C@H]([C@H](CC(N)=O)[C@@]2(C)CCC(=O)NC[C@H](C)OP(=O)([O-])O[C@H]2[C@@H](O)[C@@H](n3cnc4cc(C)c(C)cc43)O[C@@H]2CO)[C@]2(C)N=C(/C(C)=C3N=C(/C=C4N=C1[C@@H](CCC(N)=O)C\4(C)C)[C@@H](CCC(N)=O)[C@]\3(C)CC(N)=O)[C@@H](CCC(N)=O)[C@]2(C)CC(N)=O.[Co+2] (stereo in doubt) [cobalamin] here?
Its bioavailability is 50%.

Which “safety and tolerability profile” value ([3]; human, in vivo) does the source give for O=C(O)CCCC[C@@H]1CCSS1 [(R)-Alpha Lipoic Acid] here?
Its value is “good safety and tolerability profile”.

What about the “reduction of yearly rate of brain atrophy” value ([3]; young persons with multiple sclerosis) of the same compound?
Its value is about 70%.

For O=c1cc(-c2ccc(O)cc2)oc2cc(O)cc(O)c12 [Apigenin], which “clinical course and biomarkers including abnormal protein deposition” value [4] is on record?
Its value is “trend towards clinical stabilization and reduction of specific biomarkers”.

For C[N+](C)(C)CC(=O)O [Betaine], which plasma homocysteine concentrations [5] is on record?
The plasma homocysteine concentrations was “significant reduction”.

Which bioavailability [6] does the source give for CC(/C=C/C=C(\C)C(=O)O)=C\C=C\C=C(C)\C=C\C=C(/C)C(=O)O [Crocetin] here?
The bioavailability was 40%.

What about the “serum concentration of saffron isomers” value [6] of the same compound?
The value was “detected at a significant concentration”.

Which results are given for COc1cc(/C=C/C(=O)CC(=O)/C=C/c2ccc(O)c(OC)c2)ccc1O [Curcumin]?
working memory and attention (Buschke Selective Reminding Test, Brief Visual Memory Test-Revised, Trail Making A) ([7]; adults without dementia): improves working memory and attention; post-interventional changes in pathological proteins (amyloid and tau) by positron emission tomography ([7]; brain regions including the amygdala): significant decrease in pathological proteins

With O=C(O)[C@H](O)[C@@H](O)CO [L-Threonate] as the compound, how does the “increase in CSF Threonate concentration” value [8] read?
The value was 54%.

And the “increase in magnesium concentration” value ([8]; CSF)?
The value was 15%.

And the “Threonate concentration in cerebrospinal fluid (CSF)” value (CSF)?
The value was about 100 µM.

And the “Threonate concentration in plasma” value (plasma)?
The value was “approximately 20 μM”.

For O=c1cc(-c2ccc(O)c(O)c2)oc2cc(O)cc(O)c12 [Luteolin], which “adaptive functioning and Aberrant Behavior Checklist subscale scores” value [9] is on record?
Its value is “improvement in adaptive functioning and reduction in Aberrant Behavior Checklist subscale scores”.

And the adverse effects [9]?
Its adverse effects is “no adverse effects”.

With COc1cc(/C=C/c2ccc(O)cc2)cc(OC)c1 [Trans-Pterostilbene] as the compound, how does the “function and progression of neurodegenerative processes” value [10] read?
The value was “significantly improves function in and slows progression of neurodegenerative processes”.

With C=C1CC[C@H](O)C/C1=C/C=C1\CCC[C@]2(C)[C@@H]([C@H](C)CCCC(C)C)CC[C@@H]12 [cholecalciferol, Cholecalciferol] as the compound, how does the “brain lesions, disability and mobility” value [11] read?
The value was “fewer new brain lesions, reduced disability, and improved mobility”.

What does the source list for Nc1nc2ncc(CNc3ccc(C(=O)N[C@@H](CCC(=O)O)C(=O)O)cc3)nc2c(=O)[nH]1 [folic acid]?
dementia-related biomarkers (beta-amyloid, homocysteine, S-adenosylmethionine, amyloid precursor protein mRNA expression) [12]: deceases dementia-related biomarkers; cognitive function (full scale IQ, verbal IQ, verbal comprehension index, working memory index) ([12]; pre- and post-intervention): improves cognitive function

Which results are given for COc1ccc2[nH]cc(CCNC(C)=O)c2c1 [melatonin, Melatonin]?
cognition after a battery of neurocognitive testing [13]: significant improvement in cognition; neurohypophyseal hormone release ([14]; higher dose melatonin 5 mg): inhibited; neurohypophyseal hormone release ([14]; low dose melatonin 0.5 mg): augmented

With CC1=C(C=O)C(C)(C)CC=C1 [safranal, reference compound] as the compound, how does the “serum concentration of saffron isomers” value [6] read?
Its value is “undetectable”.
